molecular target: T1, GLUT1 (Homo sapiens, UniProt P11166); experiment: Indirect measurement of GLUT1 activity by quantification of intracellular ATP levels (glucose induced ATP increase); format: cell-based; design: endogenous in cells; host or cells: DLD1 or CHO-K1; conditions: read-out: IC50 regarding glucose induced ATP increase (GLUT1 inhibition)
T1 sequence (P11166 1-492): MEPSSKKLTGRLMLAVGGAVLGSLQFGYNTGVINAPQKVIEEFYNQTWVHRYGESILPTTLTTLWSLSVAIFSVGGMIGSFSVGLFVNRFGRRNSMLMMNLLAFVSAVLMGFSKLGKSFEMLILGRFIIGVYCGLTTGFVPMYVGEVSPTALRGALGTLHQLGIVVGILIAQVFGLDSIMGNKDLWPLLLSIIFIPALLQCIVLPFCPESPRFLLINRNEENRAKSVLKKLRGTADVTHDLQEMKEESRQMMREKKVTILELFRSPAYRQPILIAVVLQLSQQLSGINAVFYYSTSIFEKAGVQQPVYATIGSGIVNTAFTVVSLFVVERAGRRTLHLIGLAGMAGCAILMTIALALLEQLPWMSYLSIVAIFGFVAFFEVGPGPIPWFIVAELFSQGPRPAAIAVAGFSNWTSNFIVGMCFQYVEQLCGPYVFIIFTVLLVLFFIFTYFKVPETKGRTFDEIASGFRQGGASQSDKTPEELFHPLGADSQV
Procedure, shortened: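 DLD1 or CHO-K1 cells were starved overnight in glucose-free medium with 1% FCS, then combined with an oxidative phosphorylation inhibitor. GLUT1 activity was read as glucose-induced ATP increase, GLUT2 as fructose-induced. Intracellular ATP was quantified by CellTiter-Glo luminescence.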

IC50	Structure (SMILES)
168 nM	COc1ccc(CCCn2nc(C)c(NC(=O)c3cc(C(F)(F)F)nc4ccc(Br)cc34)c2C)cc1 [Example 1165]
171 nM	Cc1nn(Cc2ccc(C(=O)NCCCN(C)C)cc2)c(C)c1NC(=O)c1cc(C(F)(F)F)nc2ccc(Br)cc12 [Example 1167]
179 nM	CC(=O)NCCNC(=O)c1ccc(Cn2nc(C)c(NC(=O)c3cc(C(F)(F)F)nc4ccc(Br)cc34)c2C)cc1 [Example 1168]
182 nM	CC(=O)Nc1ccc2nc(C(F)(F)F)cc(C(=O)Nc3c(C)nn(Cc4ccc(F)cc4)c3C)c2c1 [Example 1169]
189 nM	Cc1nn(Cc2ccc(C(=O)NCc3cccnc3)cn2)c(C)c1NC(=O)c1cc(C(F)(F)F)nc2ccc(Br)cc12 [Example 1170]
195 nM	COC(=O)N1CCC(Cn2nc(C)c(NC(=O)c3cc(C(F)(F)F)nc4ccc(Br)cc34)c2C)CC1 [Example 1171]
198 nM	C=Cc1ccc(Cn2nc(C)c(NC(=O)c3cc(OC)nc4ccccc34)c2C)cc1 [Example 1172]
198 nM	Cc1nn(Cc2ccc(C(=O)Nc3ccncc3)cc2)c(C)c1NC(=O)c1cc(C(F)(F)F)nc2ccc(Br)cc12 [Example 1173]
203 nM	Cc1nn(Cc2ccc(C(=O)NC(C)(C)C)cc2)c(C)c1NC(=O)c1cc(C(F)(F)F)nc2ccc(Br)cc12 [Example 1174]
205 nM	Cc1nn(CC2CCCO2)c(C)c1NC(=O)c1cc(C(F)(F)F)nc2ccc(Br)cc12 (centres unmarked) [Example 1175]
208 nM	Cc1ccc2nc(C)cc(C(=O)Nc3c(C)nn(CC4CCOCC4)c3C)c2c1 [Example 1176]
221 nM	Cc1c(NC(=O)c2cc(C(F)(F)F)nc3ccc(Br)cc23)c(C(F)(F)F)nn1Cc1ccc(C(=O)NCCN(C)C)cn1 [Example 1177]
224 nM	Cc1nn(Cc2ccc(C(=O)NCCCc3ccccc3)cc2)c(C)c1NC(=O)c1cc(C(F)(F)F)nc2ccc(Br)cc12 [Example 1178]
228 nM	Cc1nn(Cc2ccc(C(=O)N[C@H](C)CO)cc2)c(C)c1NC(=O)c1cc(C(F)(F)F)nc2ccc(Br)cc12 [Example 1179]
231 nM	Cc1nn(Cc2ccc(F)cc2)c(C(=O)N(C)C)c1NC(=O)c1cc(C(F)(F)F)nc2ccc(Br)cc12 [Example 1180]
237 nM	COc1cc(C(=O)Nc2c(C)nn(CCc3ccc(F)cc3)c2C)c2ccccc2n1 [Example 1181]
238 nM	Cc1nn(Cc2ccc(C(=O)NC3CCCC3)cc2)c(C)c1NC(=O)c1cc(C(F)(F)F)nc2ccc(Br)cc12 [Example 1182]
241 nM	COc1ccccc1CNC(=O)c1ccc(Cn2nc(C)c(NC(=O)c3cc(C(F)(F)F)nc4ccc(Br)cc34)c2C)cc1 [Example 1183]
242 nM	Cc1nn(CC2CCN(C(=O)OC(C)(C)C)CC2)c(C)c1NC(=O)c1cc(C(N)=O)nc2ccccc12 [Example 1184]
247 nM	Cc1nn(Cc2ccc(C(=O)Nc3cccc(C(N)=O)c3)cc2)c(C)c1NC(=O)c1cc(C(F)(F)F)nc2ccc(Br)cc12 [Example 1185]
277 nM	Cc1nn(Cc2ccc(C(=O)N(C)CCO)cc2)c(C)c1NC(=O)c1cc(C(F)(F)F)nc2ccc(Br)cc12 [Example 1186]

IC50	Structure (SMILES)
288 nM	CNC(=O)CN(C)C(=O)c1ccc(Cn2nc(C)c(NC(=O)c3cc(C(F)(F)F)nc4ccc(Br)cc34)c2C)cc1 [Example 1187]
290 nM	COc1cc(C(=O)Nc2c(C(F)(F)F)nn(Cc3ccncc3C#N)c2C)c2ccccc2n1 [Example 1188]
310 nM	COc1cc(C(=O)Nc2c(C)nn(Cc3ccncc3C#N)c2C)c2ccccc2n1 [Example 1189]
312 nM	Cc1cccc(CNC(=O)c2ccc(Cn3nc(C)c(NC(=O)c4cc(C(F)(F)F)nc5ccc(Br)cc45)c3C)cc2)c1 [Example 1190]
335 nM	Cc1nn(Cc2ccc(C(=O)NCCN3CCOCC3)cn2)c(C)c1NC(=O)c1cc(C(F)(F)F)nc2ccc(Br)cc12 [Example 1191]
339 nM	Cc1nn(Cc2ccc(C(=O)N3CCN(CCO)CC3)cc2)c(C)c1NC(=O)c1cc(C(F)(F)F)nc2ccc(Br)cc12 [Example 1192]
343 nM	Cc1nn(Cc2ccc(C(=O)NCC3CCOCC3)cc2)c(C)c1NC(=O)c1cc(C(F)(F)F)nc2ccc(Br)cc12 [Example 1193]
363 nM	Cc1c(NC(=O)c2cc(C(F)(F)F)nc3ccc(Br)cc23)c(C(F)(F)F)nn1Cc1ccc(C(=O)N(C)C)cn1 [Example 1194]
385 nM	Cc1nn(Cc2ccc(F)cc2)c(C(N)=O)c1NC(=O)c1cc(C(F)(F)F)nc2ccc(Br)cc12 [Example 1197]
390 nM	Cc1nn(Cc2ccc(C#N)cc2)c(C)c1NC(=O)c1cc(C(F)(F)F)nc2ccc(-c3c(C)noc3C)cc12 [Example 1198]
408 nM	Cc1c(NC(=O)c2cc(C(F)(F)F)nc3ccc(Br)cc23)c(C(F)(F)F)nn1Cc1ccc(C(=O)N2CCOCC2)cn1 [Example 1200]
428 nM	Cc1nn(CC2CCN(C(=O)OC(C)(C)C)CC2)c(C)c1NC(=O)c1cc(C(F)(F)F)nc2ccc(Br)cc12 [Example 1201]
430 nM	COc1cc(C(=O)Nc2c(C)nn(CCc3cccc(F)c3)c2C)c2ccccc2n1 [Example 1202]
433 nM	CCN(CC)C(=O)c1ccc(Cn2nc(C)c(NC(=O)c3cc(C(F)(F)F)nc4ccc(Br)cc34)c2C)cc1 [Example 1203]
436 nM	Cc1nn(Cc2ccc(C(=O)NCCC(C)(C)O)cc2)c(C)c1NC(=O)c1cc(C(F)(F)F)nc2ccc(Br)cc12 [Example 1204]
451 nM	Cc1nn(CC2CNC(=O)O2)c(C)c1NC(=O)c1cc(C(F)(F)F)nc2ccc(Br)cc12 (centres unmarked) [Example 1206]
477 nM	Cc1nn(Cc2ccc(C(N)=O)cn2)c(C)c1NC(=O)c1cc(C(N)=O)nc2ccc(F)cc12 [Example 1207]
481 nM	Cc1nn(CC2COc3ccccc3O2)c(C)c1NC(=O)c1cc(C(F)(F)F)nc2ccc(Br)cc12 (centres unmarked) [Example 1208]
502 nM	Cc1nn(Cc2ccc(C(=O)NCc3cccc(O)c3)cc2)c(C)c1NC(=O)c1cc(C(F)(F)F)nc2ccc(Br)cc12 [Example 1209]
572 nM	Cc1ccc(CCNC(=O)c2ccc(Cn3nc(C)c(NC(=O)c4cc(C(F)(F)F)nc5ccc(Br)cc45)c3C)cc2)cc1 [Example 1210]
581 nM	Cc1nn(Cc2ccc(C(=O)NCCC(C)O)cc2)c(C)c1NC(=O)c1cc(C(F)(F)F)nc2ccc(Br)cc12 (centres unmarked) [Example 1211]

IC50	Structure (SMILES)
598 nM	Cc1nn(Cc2ccc(C(=O)N3CCN(C)CC3)cc2)c(C)c1NC(=O)c1cc(C(F)(F)F)nc2ccc(Br)cc12 [Example 1212]
614 nM	CC(=O)N1CCC(Cn2nc(C)c(NC(=O)c3cc(C(N)=O)nc4ccccc34)c2C)CC1 [Example 1213]
622 nM	Cc1c(NC(=O)c2cc(C(N)=O)nc3ccccc23)c(C(=O)N(C)C)nn1Cc1ccc(F)cc1 [Example 1214]
649 nM	Cc1nn(Cc2ccc(C(=O)N[C@H]3CCCC[C@@H]3O)cc2)c(C)c1NC(=O)c1cc(C(F)(F)F)nc2ccc(Br)cc12 [Example 1215]
673 nM	Cc1nn(Cc2ccc(C(=O)NCCC3CCCN3C)cc2)c(C)c1NC(=O)c1cc(C(F)(F)F)nc2ccc(Br)cc12 (centres unmarked) [Example 1216]
676 nM	Cc1nn(Cc2ccc(C(=O)N3CCC(O)CC3)cc2)c(C)c1NC(=O)c1cc(C(F)(F)F)nc2ccc(Br)cc12 [Example 1217]
694 nM	Cc1nn(CCN2CCOCC2)c(C)c1NC(=O)c1cc(C(F)(F)F)nc2ccc(Br)cc12 [Example 1218]
708 nM	Cc1nn(Cc2ccc(F)cc2)c(C(=O)NCCO)c1NC(=O)c1cc(C(F)(F)F)nc2ccc(Br)cc12 [Example 1219]
723 nM	Cc1nn(CCN2CCCCC2)c(C)c1NC(=O)c1cc(C(F)(F)F)nc2ccc(Br)cc12 [Example 1220]
749 nM	Cc1nn(Cc2ccc(C(=O)N(C)C)cn2)c(C)c1NC(=O)c1cc(C(F)(F)F)nc2ccc(Br)cc12 [Example 1221]
883 nM	Cc1nn(CC2CCNCC2)c(C)c1NC(=O)c1cc(C(F)(F)F)nc2ccc(Br)cc12 [Example 1222]
891 nM	Cc1nn(Cc2ccc(C(=O)NCC(N)=O)cc2)c(C)c1NC(=O)c1cc(C(F)(F)F)nc2ccc(Br)cc12 [Example 1223]
912 nM	Cc1nn(Cc2ccc(C(=O)N(C)CCN(C)C)cc2)c(C)c1NC(=O)c1cc(C(F)(F)F)nc2ccc(Br)cc12 [Example 1224]
914 nM	CCOC(=O)c1nn(Cc2ccc(F)cc2)c(C)c1NC(=O)c1cc(C(F)(F)F)nc2ccc(Br)cc12 [Example 1225]
924 nM	Cc1ccc2nc(C)cc(C(=O)Nc3c(C)nn(C/C=C/c4ccccc4)c3C)c2c1 [Example 1226]
962 nM	CCCCCN(CCO)C(=O)c1ccc(Cn2nc(C)c(NC(=O)c3cc(C(F)(F)F)nc4ccc(Br)cc34)c2C)cc1 [Example 1228]
999 nM	COc1ccc(CNC(=O)c2ccc(Cn3nc(C)c(NC(=O)c4cc(C(F)(F)F)nc5ccc(Br)cc45)c3C)cc2)cc1 [Example 1229]
1000 nM	Cc1nn(Cc2ccc(C(=O)NC(CO)CO)cn2)c(C)c1NC(=O)c1cc(C(F)(F)F)nc2ccc(Br)cc12 [Example 1230]
1040 nM	CNC(=O)c1nn(Cc2ccc(F)cc2)c(C)c1NC(=O)c1cc(C(N)=O)nc2ccccc12 [Example 1231]
1050 nM	COc1ccccc1Cn1nc(C)c(NC(=O)c2cc(C)nc3ccc(C)cc23)c1C [Example 1232]

— patent US20170037028A1 (BAYER PHARMA AKTIENGESELLSCHAFT, priority 2013, published 2017)
